Read-outs that look alike come from different tables or passages of the source. Residues, ends and D or L forms follow the SMILES beside them. *: point of attachment. Cbz = O=C(OCc1ccccc1)*; CH2F = FC*
Key:
[1] = tested on: bone-marrow-derived macrophages (BMDMs); type: cell-based; settings: BMDMs
Procedure: (§1) Bone-marrow derived macrophages. Bone-marrow derived macrophages (BMDMs) were isolated from femurs of adult VVT or Rip3^−/− mice and differentiated into macrophages using DMEM supplemented with 10% FBS and 1% penicillin-streptomycin plus either 20% L929 conditioned media or 20 ng/mL mouse M-CSF for 7-10 days. To polarize macrophages to M1 or M2, BMDMs were incubated on day 7 with 1 μg/mL LPS and 100 ng/mL IFNγ or 10 ng/mL IL-4 respectively for 24 h. Damage Associated Molecular Patterns (DAMPs) were obtained by subjecting BMDMs to 3×30 min freeze-thaw cycle or treatment with 100 ng/mL LPS and 50 μM zVAD.fmk for 24 hours, after which the media was collected and added to naïve cells at indicated ratios.
(§2) Cell viability assays. Cell death was determined by measuring lactate dehydrogenase (LDH) release into the media. Briefly, cells were treated with 100 μg/ml oxLDL in the presence or absence of 25 μM zVAD.fmk or 50 μM necrostatin-1 (Nec-1) for 24 hours and media was collected and centrifuged to pellet cell debris. The amount of LDH in media was measured in a kinetic assay by adding PBS containing 0.02% NADH and 0.03% sodium pyruvate and measuring absorbance at 340 nm for 10 minutes at 1 minute intervals. The slope of the curve provides a measure of cell death, which was expressed as fold change relative to control.
as §1, with “Rip3−/−” for “Rip3^−/−”
as §2, with “ug/ml” for “μg/ml”, “uM” for “μM”

[2] = tested on: FADD-deficient variant of human Jurkat T cells treated with TNF-α; settings: SAR study of Teng et al. 2005, relative to Nec-1; cited from earlier work
[3] = tested on: atherosclerotic lesions in ApoE−/− mice; assay: Ex vivo autoradiography of aorta, en face and Oil Red O comparison; type: in vivo, mouse; settings: ApoE−/− mice, ˜1 mCi of tracer, 2 hr post injection
From the text: Radiochemistry and ex vivo autoradiography study with ApoE^−/− mice. The tracer ^123I-Nec-1 (7-^123I-Nec-1) was synthesized by a Cu(I) catalyzed direct halogen exchange reaction with the precursor 7-Br-Nec-1 and Na^123I. Eight week-old female apolipoprotein E knockout (Apo E^−/−) mice were purchased from Charles River Laboratories and fed either a chow or western diet (TD.10885, Harlan Laboratories) for 2 months (total n=6 mice). 7-^123I-O-Nec-1 (37.0-55.5 MBq) was administrated intravenously into the mice under anesthetic. After 2 hr, the mice were euthanized and perfused with PBS followed by 10% formalin via left ventricle cannulation. Aorta was dissected from heart at the base using a dissecting microscope following removal of surrounding fat and connective tissue. En face specimens were immediately exposed to super resolution phosphor screens in an autoradiography cassette. After overnight exposure at room temperature, the screens were scanned with a Cyclone Phosphor Imager (Perkin Elmer, Downers Grove, Ill.). Images were analyzed using OptiQuant™ 5.0 software. The regions of interest (ROI) were drawn around the lesions on the aortic arch, and the counts in Digital Light Unit (DLU) and surface areas in mm^2 were measured. The DLU was converted to activity in μCi using a set of calibration standards with known activities, which were exposed and scanned on the same screen used for the aorta samples, as previously described (Zhao et al, 2007; Matter et al., 2006). The percentage injected dose (% ID) was calculated from dividing the activity (pCi) of the lesion by the injected activity. Activity density in % ID/m^2 was calculated and normalized by animal body weight to get % ID×kg/m^2. The areas of the lesions and the whole aortic arch in mm^2 were also recorded using the OptiQuant™ 5.0 software, and the percentage of lesion within the area of the aorta vessel wall was calculated.
Ex vivo autoradiography study with ApoE^−/− mice. Eight week-old female apolipoprotein E knockout (Apo E^−/−) mice were purchased from Charles River Laboratories (Charles River, Canada) and fed either a chow or western diet (TD.10885, Harlan Laboratories) for 2 months (n=3 per group). […] 7-^123I-O-Nec-1 (37.0-55.5 MBq) was administrated intravenously into the mice under anesthetic. After 2 hr, the mice were euthanized in a CO2 chamber. Using a Gilson Minipuls 2 peristaltic pump, the mice were perfused with 20 mL phosphate buffered saline (PBS) followed by 10 mL of 10% formalin via left ventricle cannulation. Perfusate was drained from a cut within the right atrium. Aorta was dissected from heart at the base using a dissecting microscope following removal of surrounding fat and connective tissue. For en face experiments aortic tissues were flattened by a longitudinal cut through one side of the aortic wall cutting through the carotids and the innominant artery until the aorta was split forming a Y-shaped structure.
The uptake and distribution of the tracer on aortic tissue was studied using digital autoradiography method. En face specimens were immediately exposed to super resolution phosphor screens in a Fisher Biotech autoradiography cassette. After overnight exposure at room temperature, the screens were scanned with a Cyclone Phosphor Imager (Perkin Elmer, Downers Grove, Ill.). Images were analyzed using OptiQuant™ 5.0 software. The regions of interest (ROI) were drawn around the lesions on the aortic arch, and the counts in Digital Light Unit (DLU) and surface areas in mm^2 were measured. The DLU was converted to activity in pCi using a set of calibration standards with known activities, which were exposed and scanned on the same screen used for the aorta samples. The percentage injected dose (% ID) was calculated from dividing the activity (pCi) of the lesion by the injected activity. Activity density in % ID/m^2 was calculated and normalized by animal body weight to get % ID×kg/m^2. […]

[4] = tested on: ApoE−/− mice with established atherosclerosis; assay: Atherosclerosis study: time-release pellets in Western diet fed ApoE−/− mice; type: in vivo, mouse
Procedure: Atherosclerosis Studies. All animal experiments were performed in accordance with the Animal Care and Use Committee, University of Ottawa, Canada. Eight week old Apo E^−/− mice (total n=17 mice) were fed an adjusted calories diet (21% fat; 0.2% cholesterol, Harlan Teklad) for 4 weeks to induce atherosclerotic progression. Mice were then injected with time-release placebo or Nec-1s tablets (2 mg/kg/day), which were synthesized by Innovative Research of America, USA. Mice were euthanized after 6 weeks of treatment, perfused with saline and aortic roots were embedded in OCT medium and frozen. Aortic roots were sectioned (10 μm) and stained with hematoxylin and eosin for lesion area and necrotic core quantification, and a minimum of 10 sections per animal were measured across the length of the entire aortic root. For en face aortic lesion quantifications, aortas were dissected removing all branching vessels down to the femoral bifurcation and then sliced ventrally and images of aortas were digitally captured using ImagePro™. Lesion areas within the entire length of the aorta were quantified using Image J™ and expressed relative to the total aortic surface area. Immunohistochemistry for vascular smooth muscle cells was performed using a primary antibody for a-smooth muscle actin (monoclonal, Sigma) conjugated to alkaline phosphatase and visualized using SigmaFAST Red (Sigma). Statistical significance between the two groups were analyzed using Students' t-test (p<0.05).
Atherosclerosis Studies. All animal experiments were performed in accordance with the Animal Care and Use Committee, University of Ottawa, Canada. Eight week old apoE−/− mice (total n=17 mice) were fed an adjusted calories diet (21% fat; 0.2% cholesterol, Harlan Teklad) for 4 weeks to induce atherosclerotic progression. Mice were then injected with time-release placebo or stable Necrostatin-1 (Nec-1)15 tablets (2 mg/kg/day), which were synthesized by Innovative Research of America, USA. Mice were euthanized after 6 weeks of treatment, perfused with saline and aortic roots were embedded in OCT medium and frozen. Aortic roots were sectioned (10 μm) and stained with hematoxylin and eosin for lesion area and necrotic core quantification, and a minimum of 10 sections per animal were measured across the length of the entire aortic root. For en face aortic lesion quantifications, aortas were dissected removing all branching vessels down to the femoral bifurcation and then sliced ventrally and images of aortas were digitally captured using ImageProTM. Lesion areas within the entire length of the aorta were quantified using Image JTM and expressed relative to the total aortic surface area. Immunohistochemistry to visualize macrophages and smooth muscle cells was performed using primary antibodies to CD68 (rat monoclonal, Serotec) or phosho-MLKL (rabbit polyclonal, Abcam) with a secondary conjugated to biotin and α-smooth muscle actin (monoclonal, Sigma) conjugated to alkaline phosphatase and visualized using DAB or SigmaFAST Red (Sigma), respectively. Image J was used to quantify positive staining area and statistical significance between the two groups were analyzed using Students' t-test (p<0.05)

Question: Which “effect on cell death in response to oxLDL (in words)” value ([1]; co-treatment with caspase-1 inhibitor zYVAD.fmk 20 uM) does the source give for `COC(=O)C[C@H](NC(=O)[C@H](C)NC(=O)[C@@H](NC(=O)[C@H](Cc1ccc(O)cc1)NC(=O)OCc1ccccc1)C(C)C)C(=O)CF` [zYVAD.fmk] here?
Answer: Its value is “did not reduce or prevent cell death”.

Question: For `O=C1NC(=S)NC1Cc1c[nH]c2ccccc12` (centres unmarked) [Nec-1i], which “necroptosis inhibitory activity (in words)” value [2] is on record?
Answer: The value was “completely abolished”.

Question: What does the source list for `COC(=O)C[C@H](NC(=O)[C@H](C)NC(=O)[C@@H](NC(=O)OCc1ccccc1)C(C)C)C(=O)CF` [zVAD.fmk] (Cbz-Val-Ala-Asp(OMe)-CH2F)?
Answer: cell death (LDH release), fold change relative to control ([1]; 100 μg/mL oxLDL + 25 μM zVAD.fmk, 24 h, mean±SEM): 5.7±0.7 fold; effect on cell death in response to oxLDL (in words) ([1]; oxLDL + pan caspase inhibitor zVAD.fmk 25 μM, 24 h): significantly enhanced cell death

Question: Which “necroptosis inhibitory activity (in words)” value [2] does the source give for `CN1C(=O)C(Cc2c[nH]c3c(Cl)cccc23)NC1=S` (centres unmarked) [7-Cl-Nec-1] here?
Answer: The value was “increased activity”.

Question: With `COc1ccc([C@@H]2[C@@H]3CCc4ccc([123I])cc4C3=NN2C(C)=O)cc1` [8-^123I-Nec-3R] as the compound, how does the “uptake in atherosclerotic lesions by autoradiography (in words)” value [3] read?
Answer: Its value is “significant lesion uptake”.

Question: What does the source list for `CN1C(=O)NC(Cc2c[nH]c3c(Cl)cccc23)C1=O` (centres unmarked) [Nec-1s]?
Answer: atherosclerotic lesion area versus placebo (in words) ([4]; Western diet 4 weeks then 2 mg/kg/day for 6 weeks): reduced en face lesion areas; reduction of lesion necrotic core area compared to placebo ([4]; aortic sinus, 2 mg/kg/day, 6 weeks): 62%
